Test results reported in patent US10118954B2, “Apelin analogues” (University of Ulster, priority 2014, dated 2018).

Experiments:
[1] = Degradation of apelin peptides by plasma from fasted normal NIH Swiss mice (rp-HPLC, MALDI-TOF MS); format: in vitro ADME; conditions: for half-life at 263 µg/mL / remaining at 4 h, 263 µg/mL: NIH Swiss, mouse, plasma, pH 7.4
Method: Degradation of Apelin Peptides by Plasma from Fasted Normal NIH Swiss Mice […] The enzymatic reaction was stopped by adding 50 μl of 10% TFA (0.1% v/v; Sigma-Aldrich Ltd, (Poole, Dorset, UK) and frozen at -20° C. until separation. The terminated reaction products were then applied to an analytical Vydac C-8 column (4.6×150 mm; Phenomenex, Macclesfield, Cheshire, UK) for rp-HPLC analysis. The absorbance was monitored at 214 nm using a […] UV 2000 detector (Thermoquest Limited, Manchester, UK) and the traces were recorded by Thermo Electron ChromQuest data collection software (version 4). HPLC peak fractions were collected manually and subjected to MALDI-TOF mass spectrometry for peptide identification. Degradation profile of various apelin-13 related analogues: plasma incubations (4 h) were separated on a Vydac C-8 analytical HPLC column and all peaks were collected prior to analysis by MALDI-TOF mass spectrometry. Degradation fragments, actual molecular weights (Mr) and retention times (RT) are shown. Theoretical molecular weights of each fragment are shown in brackets. […] Degradation fragments, theoretical molecular weights (Mr) and retention times (RT) are shown. Theoretical molecular weights of each fragment are shown in brackets.

[2] = system: NIH Swiss mice fed a high-fat diet for 150 days; assay: Acute and delayed i.p. glucose tolerance test, blood glucose and plasma insulin; format: in vivo
Method: Plasma glucose and plasma insulin concentrations were measured prior to and after i.p. administration of glucose alone (18 mmol/kg body weight), or in combination with apelin analogues (25 nmol/kg body weight) in 18 h fasted mice fed a high-fat diet for 150 days. Values represent mean±SEM for eight mice (n=8). *P<0.05, **P<0.01 and ***P<0.001 compared to glucose alone. FIG. 6 illustrates effect of i.p. administration of glucose alone (18 mmol/kg body weight), ([…])apelin-13 and ([…])apelin-13 alone or in combination (each 25 nmol/kg body weight) on (A) blood glucose and (B) plasma insulin in 18 h fasted mice fed a high-fat diet for 150 days. Values represent mean±SEM for eight mice (n=8). *p<0.05 and **p<0.01 compared to glucose alone, ^+P<0.05 compared to ([…])apelin-13, ^∇P<0.05 and ^∇∇P<0.01 compared to ([…])apelin-13. FIG. 10 illustrates tests conducted 2 h after administration of apelin related analogues (25 nmol/kg body wt) in 18 h fasted mice fed a high-fat diet for 150 days. (A) Blood glucose and (B) plasma insulin was measured before and after i.p. administration of glucose (18 mmol/kg body wt) alone or in combination with apelin analogues. Values represent mean±SEM for eight mice (n=8). *P<0.05 and **P<0.01 compared to glucose alone. FIG. 11 illustrates tests conducted 8 h after administration of apelin related analogues (25 nmol/kg body wt) in 18 h fasted mice fed a high-fat diet for 150 days. (A) Blood glucose and (B) plasma insulin was measured before and after i.p. administration of glucose (18 mmol/kg body wt) alone or in combination with apelin analogues. Values represent mean±SEM for eight mice (n=8). *P<0.05 and **P<0.01 compared to glucose alone. FIG. 12 illustrates acute effects of fatty acid modified apelin analogues on glucose-lowering and insulin release in high fat fed Swiss NIH mice with dietary-induced diabetes. (A) Blood glucose and (B) plasma insulin concentrations were measured prior to and after i.p. administration of glucose alone (18 mmol/kg body weight), or in combination with apelin analogues (25 nmol/kg body weight) in 18 h fasted mice fed a high-fat diet for 150 days. Values represent mean±SEM for eight mice (n=8). *P<0.05, compared to glucose alone. FIG. 13 illustrates tests conducted 16 h after administration of fatty acid apelin analogues (25 nmol/kg body wt) in mice fed a high-fat diet for 150 days. (A) Blood glucose and (B) plasma insulin was measured before and after i.p. administration of glucose (18 mmol/kg body wt) alone or in combination with apelin analogues. Values represent mean±SEM for eight mice (n=8). *P<0.05, **P<0.01 and ***P<0.001 compared to glucose alone. NIH Swiss mice (Harlan UK Ltd., Blackthorne, UK) were derived from a nucleus colony obtained from the National Institute of Health, Bethesda, Md., USA. One group of mice were maintained on a standard rodent diet (10% fat, 30% protein, 60% carbohydrate; percent of total energy 12.99 kJ/g, Trouw Nutrition, Cheshire, UK) and used as a model of normal glycaemia. Other NIH Swiss mice were maintained on a high fat diet (45% fat, 20% protein, 35% carbohydrate; percent of total energy 26.15 […], UK) from 8 weeks of age for 150 days to produce a model of diet induced obesity-diabetes. […] All mice were housed in an air-conditioned room maintained at 22±2° C. with a 12 h light: 12 h dark cycle (08:00-20:00 h), were singly caged, and selected for experimental groups according to body weight and non-fasted blood glucose. Drinking water and diet were freely available. All animal studies were performed in accordance with the UK Animals (Scientific Procedures) Act 1986. For acute in vivo studies, blood samples were collected from the cut tip of the tail vain of fasted, conscious mice into fluoride/heparin coated glucose microcentrifuge tubes (Sarstedt, Germany) immediately prior to (t=0) and at 15, 30, 60 and 105 min following i.p. injection of glucose ([…]).

[3] = system: high fat fed NIH Swiss mice; assay: 28 day long-term study, twice daily i.p. administration; format: in vivo; conditions: for Percentage fat mass compared to high-fat fed controls: DEXA; for Glucose tolerance and plasma insulin excursion following an i.p. and oral glucose load: after the 28 day treatment period
Text: NIH Swiss mice (Harlan UK Ltd., Blackthorne, UK) were derived from a nucleus colony obtained from the National Institute of Health, Bethesda, Md., USA. One group of mice were maintained on a standard rodent diet (10% fat, 30% protein, 60% carbohydrate; percent of total energy 12.99 kJ/g, Trouw Nutrition, Cheshire, UK) and used as a model of normal glycaemia. Other NIH Swiss mice were maintained on a high fat diet (45% fat, 20% protein, 35% carbohydrate; percent of total energy 26.15 […], UK) from 8 weeks of age for 150 days to produce a model of diet induced obesity-diabetes. […] Drinking water and diet were freely available. All animal studies were performed in accordance with the UK Animals (Scientific Procedures) Act 1986. […] Following the run-in period, normal control (n=8) and high-fat fed mice (n=8) received twice daily (09:00 and 17:00 h) i.p. administration of saline vehicle (0.9% NaCl (w/v)) for 28 days. […] Blood samples for glucose and plasma insulin measurement were collected at intervals throughout the study from the cut tail vein of conscious mice. […] Glucose was measured using an Ascensia Contour meter and blood was collected and processed for plasma insulin analysis by radioimmunoassay. Body weight and fat mass was also assessed using the PIXImus DEXA scanner whilst energy expenditure, intake, food intake and feeding bouts were assessed using the CLAMS metabolic chamber. HbA1c was analysed post 28 days using Bayer A1C Now^+ Multi Test meter. Lipid profile test was obtained by using the iLab analyser. Cholesterol, triglyceride and HDL-cholesterol levels were measured, in plasma (3 μl), using the iLab analyser. LDL-cholesterol levels were obtained using the Friedewald equation=total cholesterol-HDL-(triglycerides/3).

male NIH Swiss mice = assay: Acute effects of apelin analogues on voluntary food intake; format: in vivo; conditions: 25 nmol/kg i.p., 150 min, FIG. 39
Method: Saline and peptide analogues were administered by intraperitoneal injection and cumulative food intake was monitored at 30, 60, 90 and 120 min after feeding.
Mice were habituated to a daily feeding regime of 3 h/day by progressively reducing the daily feeding period over 3 weeks. This was performed to ensure mice consumed entire daily food intake within 3 h, thereby allowing “peptide” effects to be measured over the known eating period of mice. On days 1 to 7, mice were supplied with food from 10:00 h to 20:00 h, on days 8 to 14, food was presented from 10:00 h to 19:00 h and on days 15 to 21, food was restricted to the 3 h interval from 10:00 h to 13:00 h. This regime was continued throughout the experimental period.
Mice that were habituated to a 3 h daily feeding regime were administered with an i.p. injection of saline (0.9% w/v NaCl) or apelin peptide (1-100 nmol/kg bw) at 10:00 h (n=8). Immediately following injection, food was initially weighed and then presented to the mice and subsequently weighed at 30 min intervals up to 180 min.

[4] = acute, peptide 25 nmol/kg i.p. with glucose 18 mmol/kg, Table 4
[5] = following a 2 h delay, 25 nmol/kg
[6] = following a 8 h delay, 25 nmol/kg
[7] = twice daily 25 nmol/kg bw, 28 days
[8] = acute, alone and in combination, each 25 nmol/kg i.p. with glucose, Table 5

Structure (SMILES) | Degradation fragment, Peak 1 [1] | Rank order of stability [1] | half-life at 263 µg/mL [1] [h] | remaining at 4 h, 263 µg/mL [1] [%] | Rank order on basis of anti-hyperglycaemic efficacy ([2]; acute, Table 4) | Blood glucose as percent of glucose-alone control (lower = stronger glucose lowering) [2, 4] | Insulin secretion, where glucose alone = 100% [2, 4] | Rank order on basis of anti-hyperglycaemic efficacy ([2]; following a 2 h delay) | Blood glucose as percent of glucose-alone control (lower = stronger glucose lowering) [2, 5] | Insulin secretion, where glucose alone = 100% [2, 5] | Rank order on basis of anti-hyperglycaemic efficacy ([2]; following a 8 h delay) | Blood glucose as percent of glucose-alone control (lower = stronger glucose lowering) [2, 6] | Insulin secretion, where glucose alone = 100% [2, 6] | Percentage fat mass compared to high-fat fed controls ([3]; after 28 days) | Glucose tolerance and plasma insulin excursion following an i.p. and oral glucose load [3] | Day of study at which bodyweight was significantly decreased [3, 7] [days] | further results
CSCC[C@H](NC(=O)[C@@H]1CCCN1C(=O)CNC(=O)[C@H](CCCCN)NC(=O)[C@H](Cc1c[nH]cn1)NC(=O)[C@H](CO)NC(=O)[C@H](CC(C)C)NC(=O)[C@H](CCCNC(=N)N)NC(=O)[C@@H]1CCCN1C(=O)[C@H](CCCNC(=N)N)NC(=O)[C@@H]1CCC(=O)N1)C(=O)N1CCC[C@H]1C(=O)N[C@@H](Cc1ccccc1)C(N)=O [(pGlu)apelin-13-amide] | amide (1-5) | 7 | 10.4 | 85 ± 1.3 | 1 | 57% (**) | 159% (***) | 1 | 67% (**) | 146% (***) | 1 | 79% (*) | 120% (*) | significantly reduced | significantly improved | ~20 | Degradation fragment, Peak 2 [1]: amide (1-12); Time after injection up to which efficacy is retained ([2]; glucose lowering, high-fat fed mice): up to 8 h; Glycated haemoglobin (HbA1c) in comparison to high-fat fed saline treated controls ([3]; after 28 days): reduction; Insulin sensitivity ([3]; after 28 days, insulin 25 U/kg bw): significantly improved; Day of study at which circulating blood glucose began to be significantly reduced and plasma insulin increased [3, 7]: 10 days; Food intake [3, 7]: significantly reduced food intake; Non-fasting plasma insulin levels [3, 7]: significant increase
CSCC[C@H](NC(=O)[C@@H]1CCCN1C(=O)CNC(=O)[C@H](CCCCN)NC(=O)[C@H](Cc1c[nH]cn1)NC(=O)[C@H](CO)NC(=O)[C@H](CC(C)C)NC(=O)[C@H](CCCNC(=N)N)NC(=O)[C@@H]1CCCN1C(=O)[C@H](CCCNC(=N)N)NC(=O)[C@@H](N)CCC(N)=O)C(=O)N1CCC[C@H]1C(=O)N[C@@H](Cc1ccccc1)C(N)=O [Apelin-13-amide] | Apelin-13-amide (1-12) | 5 | 11.4 | 80.4 ± 1.9 | 2 | 65% (**) | 153% (***) | 2 | 73% (**) | 142% (**) | 3 | 88% ^ | 106% | failed to reach significance | significantly improved | ~20 | Glucose lowering, where glucose alone = 100% [2, 8]: 65% (**); Insulin secretion, where glucose alone = 100% [2, 8]: 153% (***)
CCCCCCCCCCCCCCCC(=O)N[C@@H](CCC(=O)NCCCC[C@H](NC(=O)[C@H](Cc1c[nH]cn1)NC(=O)[C@H](CO)NC(=O)[C@H](CC(C)C)NC(=O)[C@H](CCCNC(=N)N)NC(=O)[C@@H]1CCCN1C(=O)[C@H](CCCNC(=N)N)NC(=O)[C@@H](N)CCC(N)=O)C(=O)NCC(=O)N1CCC[C@H]1C(=O)N[C@@H](CCSC)C(=O)N1CCC[C@H]1C(=O)N[C@H](C(=O)O)C(C)C)C(=O)O [Lys^8GluPAL(Val^13)apelin-13] | – | – | – | – | – | – | – | – | – | – | – | – | – | – | – | – | Increase of food intake, maximal, compared to saline treated control (male NIH Swiss mice): 9.2%
